{"source": "patent US11992473B2", "about": "“Compositions and methods for diagnosis and treatment of conditions related to the quality of aging and longevity” (Epitracker, Inc., priority 2018, dated 2024)", "format_in_all_cases": "cell-based, human", "key": {"[1]": {"test_system": "Peripheral blood mononuclear cells, B cells", "assay": "BioMAP Diversity PLUS BT system (T cell dependent B cell activation)", "conditions": "BT system", "how_it_was_run": "(§1)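 Human primary cells from healthy donors, stimulated to model each disease setting, were exposed to compounds at 740 nm and 2.2, 6.7 and 20 μM. Readouts are 7-17 protein biomarkers per system measured by ELISA-type immunoassays, plus proliferation and viability assays.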"}, "[2]": {"test_system": "Macrophages, venular endothelial cells", "assay": "BioMAP Diversity PLUS lMphg system (Th1 type chronic inflammation, macrophage activation)", "conditions": "/Mphg system", "how_it_was_run": "(§2)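 Primary human cells from healthy donors were stimulated with cytokines or growth factors to model tissue inflammation or remodelling. Compounds were tested at 740 nm, 2.2, 6.7 and 20 μM. Biomarker readouts were measured by immune-based protein detection (e.g., ELISA) or by proliferation/viability assays.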"}, "Dermal fibroblasts": {"test_system": "Dermal fibroblasts", "assay": "BioMAP Diversity PLUS HDF3CGF system (wound healing and matrix/tissue remodeling)", "conditions": "HDF3CGF system; 6.7 μM", "how_it_was_run": "as §1"}, "Lung fibroblasts": {"test_system": "Lung fibroblasts", "assay": "BioMAP Diversity PLUS MyoF system (myofibroblast differentiation and tissue remodeling)", "how_it_was_run": "as §2"}, "[3]": {"test_system": "Venular endothelial cells", "assay": "BioMAP Diversity PLUS 4H system (Th2 type vascular inflammation)", "conditions": "6.7 μM", "experimental": "This study examined activities of small molecules discovered in dolphin serum that had protective profiles against diseases of aging which can impact quality of life and longevity. These molecules were tested across 12 human primary cell-based systems as part of DiscoverX's BioMAP Diversity Plus program. These systems are designed to model complex human tissue and disease biology of the vasculature, skin, lung, and inflammatory tissues. Quantitative measurements of biomarker activities across this broad panel, along with comparative analysis of biological activities of known bioactive agents were used to predict and compare the efficacy and function of the four compounds. […]\n(§3) Each test agent generates a signature BioMAP profile that is created from the changes in protein biomarker readouts within individual system environments. Biomarker readouts (7-17 per system) are selected for therapeutic and biological relevance, are predictive for disease outcomes or specific drug effects and are validated using agents with known mechanism of action (MoA). Each readout is measured quantitatively by immune-based methods that detect protein (e.g., ELISA) or functional assays that measure proliferation and viability. BioMAP readouts are diverse and include cell surface receptors, cytokines, chemokines, matrix molecules and enzymes. […]"}, "[4]": {"test_system": "Venular endothelial cells, peripheral blood mononuclear cells", "assay": "BioMAP Diversity PLUS SAg system (T cell stimulation, Th1 type chronic inflammation)", "conditions": "SAg system; 6.7 μM", "how_it_was_run": "as §2"}, "[5]": {"test_system": "Bronchial epithelial cells", "assay": "BioMAP Diversity PLUS BE3C system (Th1 type lung inflammation)", "experimental": "(§4) This study examined activities of small molecules discovered in dolphin serum that had protective profiles against diseases of aging which can impact quality of life and longevity. These molecules were tested across 12 human primary cell-based systems as part of DiscoverX's BioMAP Diversity Plus program. These systems are designed to model complex human tissue and disease biology of the vasculature, skin, lung, and inflammatory tissues. Quantitative measurements of biomarker activities across this broad panel, along with comparative analysis of biological activities of known bioactive agents were used to predict and compare the efficacy and function of the four compounds. Compounds were tested at four concentrations (740 nm and 2.2, 6.7 and 20 μM).\nBioMAP panels consist of human primary cell-based systems designed to model different aspects of the human body in an in vitro format. The 12 systems in the Diversity PLUS panel allow test agent characterization in an unbiased way across a broad set of systems modeling various human disease states. BioMAP systems are constructed with one or more primary cell types from healthy human donors, with stimuli (such as cytokines or growth factors) added to capture relevant signaling networks that naturally occur in human tissue or pathological conditions. Vascular biology is modeled in both a Th1 (3C system) and a Th2 (4H system) inflammatory environment, as well as in a Th1 inflammatory state specific to arterial smooth muscle cells (CASM3C system). Additional systems recapitulate aspects of the systemic immune response including monocyte-driven Th1 inflammation (LPS system) or T cell stimulation (SAg system), chronic Th1 inflammation driven by macrophage activation (lMphg system) and the T cell-dependent activation of B cells that occurs in germinal centers (BT system). The BE3C system (Th1) and the BF4T system (Th2) represent airway inflammation of the lung, while the MyoF system models myofibroblast-lung tissue remodeling. Lastly, skin biology is addressed in the KF3CT system modeling Th1 cutaneous inflammation and the HDF3CGF system modeling wound healing.\nEach test agent generates a signature BioMAP profile that is created from the changes in protein biomarker readouts within individual system environments. Biomarker readouts (7-17 per system) are selected for therapeutic and biological relevance, are predictive for disease outcomes or specific drug effects and are validated using agents with known mechanism of action (MoA). Each readout is measured quantitatively by immune-based methods that detect protein (e.g., ELISA) or functional assays that measure proliferation and viability. BioMAP readouts are diverse and include cell surface receptors, cytokines, chemokines, matrix molecules and enzymes. In total, the Diversity PLUS panel contains 148 biomarker readouts that capture biological changes that occur within the physiological context of the particular BioMAP system. Specific BioMAP activities have been correlated to in vivo biology, and multiparameter BioMAP profiles have been used to distinguish compounds based on MoA and target selectivity across diverse physiological systems.\nThe Diversity PLUS panel allows test agent characterization in an unbiased way across a broad set of systems modeling various human disease states. These systems are designed to model complex human tissue and disease biology of the vasculature, skin, lung, and inflammatory tissues. Quantitative measurements of 148 biomarker activities across this broad panel, along with comparative analysis of biological activities from known bioactive agents, were used to predict and compare the efficacy and function of each selected compound at four concentrations (740 nm and 2.2, 6.7 and 20 μM). […]"}, "[6]": {"test_system": "Keratinocytes, dermal fibroblasts", "assay": "BioMAP Diversity PLUS KF3CT system (Th1 type cutaneous inflammation)", "experimental": "as §4\nBioMAP panels consist of human primary cell-based systems designed to model different aspects of the human body in an in vitro format. The 12 systems in the Diversity PLUS panel allow test agent characterization in an unbiased way across a broad set of systems modeling various human disease states. […]\nas §3, with “enzymes. In total, the Diversity PLUS panel contains 148 biomarker readouts that capture biological changes that occur within the physiological context of the particular BioMAP system.” for “enzymes.”"}}}
{"smiles": "CCCCCCCCCCCCCCC(=O)O[C@H](CC(=O)[O-])C[N+](C)(C)C", "note": "[Pentadecanoylcarnitine (C15), pentadecanoylcarnitine]", "values": [{"measurement": "Significant log10 reduction compared to nontreated controls: Secreted interleukin 2 (IL-2)", "setting": "[1]; 2.2 μM", "result": "−0.11", "unit": "log10"}, {"measurement": "Significant log10 reduction compared to nontreated controls: Secreted interleukin 6 (IL-6)", "setting": "[1]; 6.7 μM", "result": "−0.13", "unit": "log10"}, {"measurement": "Significant log10 reduction compared to nontreated controls: Tumor necrosis factor alpha (TNFα)", "setting": "[1]; 6.7 μM", "result": "−0.10", "unit": "log10"}, {"measurement": "Significant log10 reduction compared to nontreated controls: Monocyte chemoattractant protein 1 (MCP-1)", "setting": "[2]; 2.2 μM", "result": "−0.17", "unit": "log10"}, {"measurement": "Significant log10 reduction compared to nontreated controls: Monocyte chemoattractant protein 1 (MCP-1)", "setting": "[2]; 6.7 μM", "result": "−0.25", "unit": "log10"}, {"measurement": "Significant log10 reduction compared to nontreated controls: Secreted interleukin 10 (IL-10)", "setting": "[2]; 6.7 μM", "result": "−0.13", "unit": "log10"}, {"measurement": "Significant log10 reduction compared to nontreated controls: Matrix metalloproteinase 1 (MMP-1)", "setting": "Dermal fibroblasts", "result": "−0.12", "unit": "log10"}, {"measurement": "Significant log10 reduction compared to nontreated controls: Alpha smooth muscle actin (αSMA)", "setting": "Lung fibroblasts; 0.7 μM", "result": "−0.16", "unit": "log10"}, {"measurement": "Significant log10 reduction compared to nontreated controls: Alpha smooth muscle actin (αSMA)", "setting": "Lung fibroblasts; 2.2 μM", "result": "−0.18", "unit": "log10"}, {"measurement": "Significant log10 reduction compared to nontreated controls: Alpha smooth muscle actin (αSMA)", "setting": "Lung fibroblasts; 6.7 μM", "result": "−0.26", "unit": "log10"}, {"measurement": "Significant log10 reduction compared to nontreated controls: Vascular endothelial growth factor s (VEGFR2)", "setting": "[3]", "result": "−0.11", "unit": "log10"}, {"measurement": "Significant log10 reduction compared to nontreated controls: E-selectin", "setting": "[4]", "result": "−0.11", "unit": "log10"}, {"measurement": "Significant log10 reduction compared to nontreated controls: T cell proliferation", "setting": "[4]", "result": "−0.17", "unit": "log10"}, {"measurement": "Significant log10 reduction compared to nontreated controls: Interferon-inducible T cell alpha chemoattractant (I-TAC)/CXCL11", "setting": "[5]; 0.7 μM", "result": "−0.13", "unit": "log10"}, {"measurement": "Significant log10 reduction compared to nontreated controls: Interleukin 1 alpha (IL-1α)", "setting": "[5]; 0.7 μM", "result": "−0.06", "unit": "log10"}, {"measurement": "Significant log10 reduction compared to nontreated controls: Interferon-inducible T cell alpha chemoattractant (I-TAC)/CXCL11", "setting": "[5]; 2.2 μM", "result": "−0.17", "unit": "log10"}, {"measurement": "Significant log10 reduction compared to nontreated controls: Interleukin 1 alpha (IL-1α)", "setting": "[5]; 2.2 μM", "result": "−0.06", "unit": "log10"}, {"measurement": "Significant log10 reduction compared to nontreated controls: Matrix metalloproteinase 1 (MMP-1)", "setting": "[5]; 2.2 μM", "result": "−0.05", "unit": "log10"}, {"measurement": "Significant log10 reduction compared to nontreated controls: Matrix metalloproteinase 9 (MMP-9)", "setting": "[5]; 2.2 μM", "result": "−0.08", "unit": "log10"}, {"measurement": "Significant log10 reduction compared to nontreated controls: Plasminogen activation inhibitor 1 (PAI-1)", "setting": "[5]; 2.2 μM", "result": "−0.08", "unit": "log10"}, {"measurement": "Significant log10 reduction compared to nontreated controls: Tissue plasminogen activator (tPA)", "setting": "[5]; 2.2 μM", "result": "−0.11", "unit": "log10"}, {"measurement": "Significant log10 reduction compared to nontreated controls: Human leukocyte antigen-DR isotype (HLA-DR)", "setting": "[5]; 6.7 μM", "result": "−0.63", "unit": "log10"}, {"measurement": "Significant log10 reduction compared to nontreated controls: Interferon gamma-induced protein 10 (IP-10)/CXCL10", "setting": "[5]; 6.7 μM", "result": "−0.1", "unit": "log10"}, {"measurement": "Significant log10 reduction compared to nontreated controls: Interferon-inducible T cell alpha chemoattractant (I-TAC)/CXCL11", "setting": "[5]; 6.7 μM", "result": "−0.54", "unit": "log10"}, {"measurement": "Significant log10 reduction compared to nontreated controls: Interleukin 1 alpha (IL-1α)", "setting": "[5]; 6.7 μM", "result": "−0.19", "unit": "log10"}, {"measurement": "Significant log10 reduction compared to nontreated controls: Interleukin 8 (IL-8)/CXCL8", "setting": "[5]; 6.7 μM", "result": "−0.21", "unit": "log10"}, {"measurement": "Significant log10 reduction compared to nontreated controls: Matrix metalloproteinase 1 (MMP-1)", "setting": "[5]; 6.7 μM", "result": "−0.27", "unit": "log10"}, {"measurement": "Significant log10 reduction compared to nontreated controls: Matrix metalloproteinase 9 (MMP-9)", "setting": "[5]; 6.7 μM", "result": "−0.34", "unit": "log10"}, {"measurement": "Significant log10 reduction compared to nontreated controls: Monokine induced by gamma interferon (MIG)/CXCL9", "setting": "[5]; 6.7 μM", "result": "−0.60", "unit": "log10"}, {"measurement": "Significant log10 reduction compared to nontreated controls: Plasminogen activation inhibitor 1 (PAI-1)", "setting": "[5]; 6.7 μM", "result": "−0.24", "unit": "log10"}, {"measurement": "Significant log10 reduction compared to nontreated controls: Tissue plasminogen activator (tPA)", "setting": "[5]; 6.7 μM", "result": "−0.43", "unit": "log10"}, {"measurement": "Significant log10 reduction compared to nontreated controls: Interferon gamma-induced protein 10 (IP-10)/CXCL10", "setting": "[6]; 0.7 μM", "result": "−0.14", "unit": "log10"}, {"measurement": "Significant log10 reduction compared to nontreated controls: Interferon gamma-induced protein 10 (IP-10)/CXCL10", "setting": "[6]; 2.2 μM", "result": "−0.09", "unit": "log10"}, {"measurement": "Significant log10 reduction compared to nontreated controls: Interferon gamma-induced protein 10 (IP-10)/CXCL10", "setting": "[6]; 6.7 μM", "result": "−0.10", "unit": "log10"}]}
